Measurements reported in patent US20250082605A1 (priority 2016, published 2025).

Assays:
TRPV1 afferents = test: Immunofluorescence study for TRPV1 afferents after L2-L5 RTX administration; type: in vivo, rat
Source text: Additionally, an immunofluorescence study for TRPV1 afferents was made following administration at the L2-L5 levels. […] Within the T1-T5 levels, no reduction in TRPV1 afferents was shown following the L2-L5 injection. Within the heart, TRPV1 fluorescence remained on the surfaces of the myocardium and within the cardiac tissue.

C fiber afferents = test: Staining of the dorsal horn of the spinal cord at T2 for TRPV1, Substance P and IB4; type: in vivo, rat
Method: (§1) For epidural application of RTX, a small midline incision was made in the region of the T13-L1 thoracic vertebrae. Following dissection of the superficial muscles, two small holes (approximately 2 mm by 2 mm) were made in the left and right sides of the T13 vertebra. A polyethylene catheter (PE-10) was inserted into the […] via the left hole and gently advanced about 5.5-6 cm to the left T1 level at which the first injection (6 μg/mL, 10 μL) was made at a very slow speed to minimize the diffusion of RTX. Then the catheter was pulled back about 0.5 cm to left T2, T3, and T4, respectively, to perform serial injections (10 μL each) in each segment. Then the catheter was withdrawn and the same injection was repeated on the right side. A silicone gel was used to seal the hole in the T13 vertebra. The skin overlying the muscle was closed with a 3-0 polypropylene suture. Simple interrupted sutures were used to close the skin.
Neurons in the dorsal horn of the spinal cord that express SP were ablated by RTX. IB4 is an indicator of small diameter afferent nerves and SP is an indicator of neuroinflammation.

rats with induced CHF [1] = test: Cardiac and renal sympathetic nerve activity (CSNA, RSNA) in CHF rats; type: in vivo, rat; details: for cardiac sympathetic nerve activity (CSNA): CHF
Method: (§2) In each case, administration of vehicle or RTX and vehicle was epidural. […] Both significance measures were at the P<0.05 level.
(§3) The following Examples 1 through 9 discuss data from rats with induced CHF. The Examples show many improved indicators associated with RTX treatment in CHF subjects. The rat models provide for comparison of epidural administration of RTX against epicardial administration of RTX and against various controls. For the epicardial data, RTX was administered directly to the epicardium by swab during open surgery contemporaneously with induced myocardial infarction (coronary artery ligation).
as §1
In each case, administration of vehicle or RTX plus vehicle was epidural. […] Both significance measures were at the P<0.05 level.

TRPV1 = TRPV1 (Rattus norvegicus, UniProt O35433); test: Isolectin B4 (IB4) and TRPV1 expression in DRG neurons after epidural RTX; type: in vivo; design: from tissue; host or cells: rat dorsal root ganglion (DRG) neurons; details: epidural RTX vs vehicle-only, FIG. 3A
Method: as §1
FIGS. 3A-4B show experimental results for a rat study in accordance with an embodiment of the present application.

[2] = system: rats with induced chronic heart failure (CHF); test: Cardiac function in rats with induced chronic heart failure; type: in vivo, Sprague-Dawley rats
Method: Both significance measures were at the P<0.05 level.
as §3, §1
The experimental data included: body weight, heart weight, the ratio of heart weight to body weight (HW/BW), the ratio of wet lung weight to body weight (WLW/BW), the left ventricle end systolic pressure (LVESP), the left ventricle end diastolic pressure (LVEDP), maximum first derivative of left ventricular pressure (dp/dtmax), the minimum first derivative of left ventricular pressure (dp/dtmin), and infarct size. […] Both significance measures were at the P<0.05 level. […] The columns titled “Sham+vehicle” and “Sham+RTX” provide a comparison for sham rats without induced chronic heart failure, and without and with, respectively, epidural RTX treatment.
The experimental data included: body weight, heart weight, the ratio of heart weight to body weight (HW/BW), the ratio of wet lung weight to body weight (WLW/BW), mean arterial pressure (MAP), the left ventricle end diastolic pressure (LVEDP), heart rate, the maximum first derivative of left ventricular pressure (dp/dtmax), the minimum first derivative of left ventricular pressure (dp/dtmin), and infarct size. […] Both significance measures were at the P<0.05 level.

rats with induced CHF [3] = test: Long-term survival of rats with induced CHF over 28 weeks; type: in vivo, rat
Method: as §3, §1
FIG. 7 depicts the survival rate of rats with induced chronic heart failure with and without RTX treatment. In FIG. 7A, the treatment was epicardial. In FIG. 7B the treatment was epidural. […] In particular, without RTX treatment, seven of ten rats died during the 28-week period. But only two of nine rats with RTX treatment died during the same period.

hypertensive rat = details: in vivo
rats with induced CHF [4] = test: End-systolic and end diastolic pressure volume relationship in CHF rats; type: in vivo, rat
Source text: In each case, administration of vehicle or RTX and vehicle was epidural.
as §2, §3, §1
In each case, administration of vehicle or RTX and vehicle was epidural. […] CHF corresponds to a reduction in ESPVR, with appeared unaffected by epidural RTX.

[5] = epidural RTX at T1-T4 DRG levels
[6] = CHF + epidural RTX vs CHF + vehicle, P<0.05

Chain of TRPV1 (O35433 whole entry): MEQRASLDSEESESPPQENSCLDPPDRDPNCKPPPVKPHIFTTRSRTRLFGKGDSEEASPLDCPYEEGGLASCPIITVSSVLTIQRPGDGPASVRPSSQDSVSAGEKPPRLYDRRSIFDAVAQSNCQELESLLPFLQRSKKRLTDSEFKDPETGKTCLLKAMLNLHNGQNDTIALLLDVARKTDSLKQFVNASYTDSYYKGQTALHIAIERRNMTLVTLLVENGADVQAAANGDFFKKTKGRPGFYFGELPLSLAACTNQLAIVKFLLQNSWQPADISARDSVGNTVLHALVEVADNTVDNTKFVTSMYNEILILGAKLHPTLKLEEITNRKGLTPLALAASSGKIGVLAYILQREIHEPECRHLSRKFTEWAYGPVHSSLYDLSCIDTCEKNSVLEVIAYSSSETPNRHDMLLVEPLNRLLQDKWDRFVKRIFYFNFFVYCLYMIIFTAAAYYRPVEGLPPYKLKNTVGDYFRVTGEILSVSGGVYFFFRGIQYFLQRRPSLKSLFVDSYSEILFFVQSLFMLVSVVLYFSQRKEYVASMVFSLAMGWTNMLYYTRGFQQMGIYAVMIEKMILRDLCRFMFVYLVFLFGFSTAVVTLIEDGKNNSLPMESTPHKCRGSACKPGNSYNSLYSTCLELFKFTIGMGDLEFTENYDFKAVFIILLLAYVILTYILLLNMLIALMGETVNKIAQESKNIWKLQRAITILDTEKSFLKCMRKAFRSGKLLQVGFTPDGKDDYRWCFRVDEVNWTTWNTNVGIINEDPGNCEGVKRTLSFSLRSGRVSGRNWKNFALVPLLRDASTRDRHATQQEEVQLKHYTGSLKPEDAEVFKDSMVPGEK

C=C(C)[C@]12C[C@@H](C)[C@@]34O[C@](Cc5ccccc5)(O[C@@H]1[C@@H]3C=C(COC(=O)Cc1ccc(O)c(OC)c1)C[C@]1(O)C(=O)C(C)=C[C@@H]41)O2 [RTX, resiniferatoxin]
TRPV1 afferents in DRG neurons, L2-L5 levels (TRPV1 afferents): elimination of most TRPV1 afferents | TRPV1 afferents, L1 level (TRPV1 afferents): many TRPV1 afferents remained | TRPV1 afferents, T1-T5 levels (TRPV1 afferents): no reduction | TRPV1 fluorescence in the heart (surfaces of the myocardium and cardiac tissue) (TRPV1 afferents): remained | expression of TRPV1 protein (C fiber afferents; dorsal horn at T2, RTX vs control, FIG. 4): reduced expression | ablation of SP-containing C fiber afferents (peptidergic) projecting to the dorsal horn (C fiber afferents; [5]): ablated almost all | ablation of isolectin B4 (IB4)-positive C fiber afferents (non-peptidergic) projecting to the dorsal horn (C fiber afferents; [5]): a large portion | CHF-induced increase in basal cardiac sympathetic tone (CSNA and RSNA) (rats with induced CHF [1]; CHF + epidural RTX): not exhibited | basal cardiac sympathetic tone, difference (rats with induced CHF [1]; CHF + epidural RTX vs non-CHF population): not statistically significant | cardiac sympathetic nerve activity (CSNA) (rats with induced CHF [1]; epicardial RTX vs untreated CHF): substantially reduced | cardiac sympathetic nerve activity (CSNA) (rats with induced CHF [1]; epidural RTX vs epicardial RTX): substantially lower | cardiac sympathetic nerve activity (CSNA) (rats with induced CHF [1]; epidural RTX vs untreated CHF): substantially reduced | isolectin B4 (IB4) and TRPV1 expression in DRG neurons (TRPV1): reduction | left ventricle end diastolic pressure, increase over sham ([2]; CHF + epidural RTX (CHF + vehicle: 380%)): 60% | infarct size, difference ([2]; CHF + epidural RTX vs CHF + vehicle): not being statistically significant | heart weight [2, 6]: statistically significantly better | heart weight as a percentage of body weight [2, 6]: statistically significantly better | left ventricle end diastolic pressure [2, 6]: statistically significantly better | minimum first derivative of left ventricular pressure (dp/dtmin) [2, 6]: statistically significantly better | wet lung weight as a percentage of body weight [2, 6]: statistically significantly better | cardiac function results, epidural versus epicardial administration ([2]; FIG. 5 column D vs FIG. 6 column H): comparable to the results achieved by epicardial administration, or are in some cases better | survival improvement, epidural versus epicardial treatment (rats with induced CHF [3]; 28 weeks): roughly comparable improvement | rats that died during the 28-week period (rats with induced CHF [3]; epidural RTX at T1-T4, n=9 (without RTX seven of ten)): two of nine | long-term survival rate (rats with induced CHF [3]; epidural RTX vs no RTX, 28 weeks): significantly higher | ABP, MAP and heart rate following injection (hypertensive rat): substantial short term increases | average short-term increase in MAP over baseline (hypertensive rat): about 30 mmHg | duration of transient increase in blood pressure, heart rate, or both (hypertensive rat): about five or ten | end diastolic pressure volume relationship (EDPVR), difference (rats with induced CHF [4]; CHF + epidural RTX vs population without CHF): not statistically significant | end diastolic pressure volume relationship (EDPVR) (rats with induced CHF [4]; CHF + epidural RTX vs untreated CHF): statistically significantly less | end-systolic pressure volume relationship (ESPVR), CHF-related reduction (rats with induced CHF [4]; epidural RTX): unaffected
